One series relates to HBV. Briefly: Anti-viral assay in HepG2.2.15 cells: HBV DNA in culture medium by qPCR. Format: cell-based. As to conditions: Hepatitis B virus, HepG2.2.15, 144 h. The method, then: (§1) HepG2.2.15 (the HepG2.2.15 cell line can be produced by transfection of the HepG2 cell line as described in Sells, Chen, and Acs 1987 (Proc. Natl. Acad. Sci. USA 84: 1005-1009), and the HepG2 cell line is available from ATCC® under number HB-8065™).
(§2) HepG2.2.15 cells were plated into 96-well plate in 2% FBS culture medium at the density of 40,000 cells/well and 5,000 cells/well for HBV inhibitory activity and cytotoxicity determination, respectively. After incubation at 37° C., 5% CO2 overnight, cells were treated with medium containing compounds for 6 days with medium and compounds refreshed after 3 days of treatment. Each compound was tested in a 1:3 serial dilutions at 8 different concentrations in triplicate. The highest concentration of the compounds was 10 uM or 1 uM for anti-HBV activity assay and 100 uM for cytotoxicity determination. Cell viability was determined by CCK-8 assay. After 6 days of compounds treatment, 20 μl CCK-8 reagents were added to each well of cytotoxicity assay plates. Cell plates were incubated at 37° C., 5% CO2 for 2.5 h. The absorbance at 450 nm wavelength and the absorbance at 630 nm wavelength as reference was measured.
The change of HBV DNA level induced by the compounds was assessed by quantitative real-time polymerase chain reaction (qPCR). Briefly, the HBV DNA in the culture medium was extracted using QlAamp 96 DNA Blood Kit according to the manual and then quantified by real-time PCR assay using the primers and probe in the table 1 below.
(§3) EC50 and CC50 values are calculated by the GRAPHPAD PRISM software.

Series [1] is described as follows: Cytotoxicity determination in HepG2.2.15 cells (CCK-8 cell viability). Type of series: cell-based. As to conditions: human, 6 days treatment, CCK-8, highest concentration 100 uM. The method, then: as §1, §2, §3
Setting [2] is: HepG2.2.15 cells, 6 days treatment, HBV DNA in culture medium by real-time PCR, read-out: EC50.

The structures appear in SMILES notation. Like-named read-outs stand apart in the source and are kept apart here.

Consider `CCOC(=O)C1=C(CN2CCO[C@@H]3CN(C(C)=O)C[C@@H]32)NC(c2nccs2)=N[C@H]1c1cccc(F)c1C` (racemic) [Compound I-4E, (S)-ethyl 6-(((cis)-6-acetylhexahydropyrrolo[3,4-b][1,4]oxazin-4(4aH)-yl)methyl)-4-(3-fluoro-2-methylphenyl)-2-(thiazol-2-yl)-1,4-dihydropyrimidine-5-carboxylate], for which, in the series on HBV, a half-maximal effect (EC50) was put at 7.1 nM. The molecule also gave a CC50 at 6 days in series [1] of 48300 nM.

With `CCOC(=O)C1=C(CN2CCO[C@@H]3CN(S(C)(=O)=O)C[C@@H]32)NC(c2nccs2)=N[C@H]1c1cccc(F)c1C` (racemic) [Compound I-7F, (S)-(cis)-Ethyl 4-(3-fluoro-2-methylphenyl)-6-((6-(methylsulfonyl)hexahydropyrrolo[3,4-b][1,4]oxazin-4(4aH)-yl)methyl)-2-(thiazol-2-yl)-1,4-dihydropyrimidine-5-carboxylate], the EC50 in the series with HBV (setting [2]) worked out at 8 nM. In series [1], this molecule yielded a CC50 at 6 days of 26400 nM.

`CCOC(=O)C1=C(CN2CCO[C@@H]3CN(c4ncc(C(=O)O)s4)C[C@@H]32)NC(c2nccs2)=N[C@H]1c1cccc(F)c1C` (racemic) [Compound I-8F, 2-((cis)-4-(((S)-5-(Ethoxycarbonyl)-6-(3-fluoro-2-methylphenyl)-2-(thiazol-2-yl)-3,6-dihydropyrimidin-4-yl)methyl)hexahydropyrrolo[3,4-b][1,4]oxazin-6(2H)-yl)thiazole-5-carboxylic acid] gave an EC50 with HBV of 45 nM. The CC50 at 6 days in series [1] amounted to 37600 nM.

For the molecule `CCOC(=O)C1=C(CN2CCO[C@H]3CN(C(=O)CC(C)(C)C(=O)O)C[C@H]32)NC(c2nccs2)=N[C@H]1c1cccc(F)c1C` (relative stereo) [Compound I-2A, 4-((4aR*,7aS*)-4-4(S)-5-(ethoxycarbonyl)-6-(3-fluoro-2-methylphenyl)-2-(thiazol-2-yl)-3,6-dihydropyrimidin-4-yl)methyl)hexahydropyrrolo[3,4-b][1,4]oxazin-6(2H)-yl)-2,2-dimethyl-4-oxobutanoic acid], the concentration giving a half-maximal response (EC50) in the series with HBV came out at 33 nM. Moreover, in series [1], half-maximal cytotoxicity (CC50 at 6 days) was put at 74000 nM.

In the case of `CCOC(=O)C1=C(CN2CCO[C@H]3CN(CC(C)(C)C(=O)O)C[C@H]32)NC(c2nccs2)=N[C@H]1c1cccc(F)c1C` (relative stereo) [Compound I-6A, 3-((4aR*,7aS*)-4-4(S)-5-(Ethoxycarbonyl)-6-(3-fluoro-2-methylphenyl)-2-(thiazol-2-yl)-3,6-dihydropyrimidin-4-yl)methyphexahydropyrrolo[3,4-b][1,4]oxazin-6(2H)-yl)-2,2-dimethylpropanoic acid], the 50% effective concentration (EC50) in the series with HBV (setting [2]) turned out to be 18 nM. Further, half-maximal cytotoxicity in series [1] (CC50 at 6 days) was put at 82400 nM.

`CCOC(=O)C1=C(CN2CCO[C@@H]3CN(S(=O)(=O)C4CC(C)(C(=O)O)C4)C[C@@H]32)NC(c2nccs2)=N[C@H]1c1cccc(F)c1C` (relative stereo) [Compound I-9F, (4aS*,7aR*)—(S)-3-((4-((5-(Ethoxycarbonyl)-6-(3-fluoro-2-methylphenyl)-2-(thiazol-2-yl)-3,6-dihydropyrimidin-4-yl)methyphexahydropyrrolo[3,4-b][1,4]oxazin-6(2H)-yl)sulfonyl)-1-methylcyclobutanecarboxylic acid]: the EC50 in the series on HBV (setting [2]) was determined as 110 nM. The 50% cytotoxic concentration (CC50) at 6 days in series [1] is 82600 nM.

In the case of `CCOC(=O)C1=C(CN2CCO[C@H]3CN(C(=O)C(C)(C)C(=O)O)C[C@H]32)NC(c2nccs2)=N[C@H]1c1cccc(F)c1C` (relative stereo) [Compound I-12A, 3-((4aR*,7aS*)-4-4(S)-5-(ethoxycarbonyl)-6-(3-fluoro-2-methylphenyl)-2-(thiazol-2-yl)-3,6-dihydropyrimidin-4-yl)methyl)hexahydropyrrolo[3,4-b][1,4]oxazin-6(2H)-yl)-2,2-dimethyl-3-oxopropanoic acid], the response with HBV was half-maximal at 310 nM (EC50). In addition, the CC50 at 6 days in series [1] is > 100000 nM.

Take `CCOC(=O)C1=C(CN2CCO[C@H]3CN(CC(C)(C)C(=O)O)C(=O)[C@H]32)NC(c2nccs2)=N[C@H]1c1cccc(F)c1C` (single isomer, unassigned) [Compound I-3B, (S)-3-((4aS*,7aS*)-4-((5-(Ethoxycarbonyl)-6-(3-fluoro-2-methylphenyl)-2-(thiazol-2-yl)-3,6-dihydropyrimidin-4-yl)methyl)-5-oxohexahydropyrrolo[3,4-b][1,4]oxazin-6(2H)-yl)-2,2-dimethylpropanoic acid]: the EC50 with HBV (setting [2]) came out at 5.2 nM. Also, the half-maximal cytotoxic concentration (CC50) at 6 days in series [1] was 60200 nM.

With `CCOC(=O)C1=C(CN2CCO[C@H]3CCN(CC(C)(C)C(=O)O)C[C@H]32)NC(c2nccs2)=N[C@H]1c1cccc(F)c1C` (single isomer, unassigned) [Compound I-10A, 3-((4aR*,8aS*)-4-(((S)-5-(Ethoxycarbonyl)-6-(3-fluoro-2-methylphenyl)-2-(thiazol-2-yl)-3,6-dihydropyrimidin-4-yl)methyl)hexahydro-2H-pyrido[4,3-b][1,4]oxazin-6(7H)-yl)-2,2-dimethylpropanoic acid], the EC50 in the series with HBV (setting [2]) came out at 28 nM. Further, the CC50 at 6 days in series [1] was 94500 nM.

Turning to `CCOC(=O)C1=C(CN2CCO[C@@H]3CN(CC(C)(C)C(=O)O)CC[C@@H]32)NC(c2nccs2)=N[C@H]1c1cccc(F)c1C` (single isomer, unassigned) [Compound I-11A, (S)-3-((4aR*,8aS*)-1-((5-(Ethoxycarbonyl)-6-(3-fluoro-2-methylphenyl)-2-(thiazol-2-yl)-3,6-dihydropyrimidin-4-yl)methyl)hexahydro-1H-pyrido[3,4-b][1,4]oxazin-6(7H)-yl)-2,2-dimethylpropanoic acid], the EC50 in the series on HBV (setting [2]) worked out at 48 nM. The molecule also had a cytotoxic concentration (CC50) at 6 days in series [1] of 97900 nM.

For the molecule `CCOC(=O)C1=C(CN2CCO[C@H]3CN(CC(C)(C)C(=O)O)C[C@H]32)NC(c2nccs2)=N[C@H]1c1cccc(F)c1Cl` (single isomer, unassigned) [Compound I-13A, 3-((4aR*,7aS*)-4-0(R*)-6-(2-Chloro-3-fluorophenyl)-5-(ethoxycarbonyl)-2-(thiazol-2-yl)-3,6-dihydropyrimidin-4-yl)methyl)hexahydropyrrolo[3,4-b][1,4]oxazin-6(2H)-yl)-2,2-dimethylpropanoic acid], the EC50 in the series with HBV (setting [2]) came out at 13 nM. In addition, half-maximal cytotoxicity in series [1] (CC50 at 6 days) was put at 67100 nM.

On to `COC(=O)C1=C(CN2CCO[C@H]3CN(CC(C)(C)C(=O)O)C[C@H]32)NC(c2nccs2)=N[C@H]1c1cccc(F)c1C` (single isomer, unassigned) [Compound I-14A, 3-((4aR*,7aS*)-4-0(S*)-6-(3-fluoro-2-methylphenyl)-5-(methoxycarbonyl)-2-(thiazol-2-yl)-3,6-dihydropyrimidin-4-yl)methyl)hexahydropyrrolo[3,4-b][1,4]oxazin-6(2H)-yl)-2,2-dimethylpropanoic acid], for which the EC50 in the series on HBV (setting [2]) was determined as 33 nM. Moreover, the cytotoxic concentration (CC50) at 6 days in series [1] is > 100000 nM.

`COC(=O)C1=C(CN2CCO[C@H]3CN(CC(C)(C)C(=O)O)C[C@H]32)NC(c2nccs2)=N[C@H]1c1ccc(F)cc1Cl` (single isomer, unassigned) [Compound I-15A, 3-((4aR*,7aS*)-4-((R*)-6-(2-Chloro-4-fluorophenyl)-5-(methoxycarbonyl)-2-(thiazol-2-yl)-3,6-dihydropyrimidin-4-yl)methyl)hexahydropyrrolo[3,4-b][1,4]oxazin-6(2H)-yl)-2,2-dimethylpropanoic acid]: in the series on HBV (setting [2]), the concentration for a half-maximal effect (EC50) came out at 19 nM. Besides, the CC50 at 6 days in series [1] was > 100000 nM.

Take `COC(=O)C1=C(CN2CCO[C@H]3CN(CC(C)(C)C(=O)O)C[C@H]32)NC(c2nccs2)=N[C@H]1c1cccc(F)c1Cl` (single isomer, unassigned) [Compound I-16A, 3-((4aR*,7aS*)-4-0(R*)-6-(2-Chloro-3-fluorophenyl)-5-(methoxycarbonyl)-2-(thiazol-2-yl)-3,6-dihydropyrimidin-4-yl)methyl)hexahydropyrrolo[3,4-b][1,4]oxazin-6(2H)-yl)-2,2-dimethylpropanoic acid]: in the series with HBV (setting [2]), the EC50 turned out to be 15 nM. For the same molecule, in series [1], it took 92800 nM to reach half-maximal cytotoxicity (CC50 at 6 days).

Turning to `COC(=O)C1=C(CN2CCO[C@H]3CN(CC(C)(C)C(=O)O)C(=O)[C@H]32)NC(c2nccs2)=N[C@H]1c1ccc(F)c(F)c1C` (single isomer, unassigned) [Compound I-17B, 3-((4aS*,7aS*)-4-(((S*)-6-(3,4-difluoro-2-methylphenyl)-5-(methoxycarbonyl)-2-(thiazol-2-yl)-3,6-dihydropyrimidin-4-yl)methyl)-5-oxohexahydropyrrolo[3,4-b][1,4]oxazin-6(2H)-yl)-2,2-dimethylpropanoic acid], the half-maximal effective concentration (EC50) with HBV (setting [2]) is 2.6 nM. Further, the CC50 at 6 days in series [1] worked out at 41700 nM.

Turning to `CCOC(=O)C1=C(CN2CCO[C@H]3CN(CC(C)(C)C(=O)O)C(=O)[C@H]32)NC(c2nccs2)=N[C@H]1c1cccc(F)c1Cl` (single isomer, unassigned) [Compound I-18A, 3-((4aS*,7aS*)-4-4(R*)-6-(2-chloro-3-fluorophenyl)-5-(ethoxycarbonyl)-2-(thiazol-2-yl)-3,6-dihydropyrimidin-4-yl)methyl)-5-oxohexahydropyrrolo[3,4-b][1,4]oxazin-6(2H)-yl)-2,2-dimethylpropanoic acid], the concentration for a half-maximal effect (EC50) with HBV (setting [2]) came out at 7 nM. For the same molecule, in series [1], half-maximal cytotoxicity (CC50 at 6 days) was put at 62400 nM.

In general, EC50 refers to the midpoint of the concentration-response curve. The term CC50 denotes the concentration that lowers cell viability or growth by half. Read a high CC50 as better tolerance by the cells.

The values are drawn from patent publication US20230002408A1, “HETEROARYLDIHYDROPYRIMIDINE DERIVATIVES AND METHODS OF TREATING HEPATITIS B INFECTIONS” (JANSSEN PHARMACEUTICA NV, priority 2019, published 2023).
